This note sets out measurements from US6734175B2, “Treatments for obesity and methods for identifiying compounds useful for treating obesity” (Pfizer Inc., priority 2000, dated 2004).

The target of one assay is T1, melanocortin-4 receptors (Homo sapiens, UniProt P32245).
T1 construct: host or cells: membranes from unnamed cells expressing the receptor
The assay is described as follows: [125I]AGRP competition binding assay. Conditions: particularly melanocortin-4 receptors; qualitative statement. An excerpt: (§1) The first radioligand binding assay is an [^125I]AGRP competition binding assay. Compounds that attenuate binding of [^125I]AGRP or AGRP would be detected in this assay. It is noted that compounds can attenuate the binding of AGRP to melanocortin 3 and/or 4 receptors by binding to melanocortin 3 and/or 4 receptors or by binding to AGRP itself. The second radioligand binding assay is an assay using radiolabeled melanocortin ligands, for example, [^125I]norleucine D-phenylalanine melanocyte stimulating hormone ([^125I]NDP-MSH). Membranes prepared from cells expressing either melanocortin 3 or 4 receptors are used in the radioligand binding assays. The preparation and use of [^125I]AGRP and [^125I]NDP-MSH is well known in the art. See, for example, Dang et al., Molecular Endocrinology, 13, 148-155 (1999). In addition, the preparation and use of membranes from cells expressing either melanocortin 3 or 4 receptors are also well known in the art. See, Bass, et al., Molecular Pharmacology, 50, 709-715 (1996).
[^125I] AGRP Competition Binding Assay
Specific Activity of [^125I]AGRP is 2200 Ci/mmole. The final concentration of [^125I]AGRP is 100 pM. Therefore, a 2 nM (20×) stock needs to be made in binding buffer. The concentration of [^125I]AGRP varies from 40-60 nM. [^125I]AGRP can be obtained from New England Nuclear, Boston, Mass.
(§2) The competition assay can be run using 96 well plates. […]

The subject of the next assay is melanocortin receptors. In words: [125I]NDP-MSH competition binding assay. The note with it: qualitative statement.
Excerpt: as §1
[^125I]NDP-MSH Competition Binding Assay
Specific Activity of [^125I]NDP-MSH is 2200 Ci/mmole. The final concentration of [^125I]NDP-MSH is 250 pM. Therefore, a 5 nM (20×) stock needs to be made in binding buffer. The concentration of [^125I]NDP-MSH varies from 40-60 nM. [^125I]NDP-MSH can be obtained from New England Nuclear, Boston, Mass.
as §2

T1 sequence (P32245 whole entry): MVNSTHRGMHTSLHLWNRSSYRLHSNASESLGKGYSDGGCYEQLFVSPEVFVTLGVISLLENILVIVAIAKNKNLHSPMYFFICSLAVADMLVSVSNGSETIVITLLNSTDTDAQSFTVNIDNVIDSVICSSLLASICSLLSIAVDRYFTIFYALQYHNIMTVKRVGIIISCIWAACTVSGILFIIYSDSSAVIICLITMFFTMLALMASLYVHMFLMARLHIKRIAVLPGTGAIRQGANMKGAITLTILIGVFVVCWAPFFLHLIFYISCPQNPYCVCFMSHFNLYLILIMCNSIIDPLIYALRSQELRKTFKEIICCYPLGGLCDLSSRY

On to `O=[N+]([O-])c1ccc(N2C3c4ccccc4CCN3N(c3ccc([N+](=O)[O-])cc3)C3c4ccccc4CCN32)cc1` (centres unmarked) [8,16-bis-(4-nitro-phenyl)-5,6,8,8a,13,14,16,16a-octahydro-[1,2,4,5]tetrazino[6,1-a;3,4-a′]diisoquinoline], for which the “binding of agouti-related protein to melanocortin receptors” value on melanocortin-4 receptors is given as “attenuates the binding of agouti-related protein to melanocortin receptors”. For the same compound, the “binding of α-melanocyte stimulating hormone to melanocortin receptors” value in the assay on melanocortin receptors is recorded as “does not attenuate the binding of α-melanocyte stimulating hormone to melanocortin receptors”.
